The conditions of series [1]: 0.05 M phosphate-buffered saline (PBS) (pH 7.4) at 37° C.; cited from earlier work.
The conditions of series [2]: rat; cited from earlier work.
Series [3] in a line: Body weight / toxicity in the A498-luc xenograft study. The series is classed as in vivo, mouse. The method, then:
(§1) To study the toxicity and therapeutic effect, in vivo studies were conducted on the micellar nanocomplexes. A subcutaneous renal cell carcinoma model was established. Adult female Balb/c athymic, immunoincompetent nude mice (average weight=19 g, age=6-8 weeks) were used.
To study the therapeutic effect of SU/PEG-EGCG micellar nanocomplexes by intravenous injection, a xenograft tumor model was established by inoculating 6×10^6 A498-luc cells subcutaneously into the root of the left thigh of the mouse. On day 6 after tumor inoculation, the animals were divided into four groups for tail vein injection of various solutions (n=8 per group) twice weekly for 5 weeks, while one group received daily SU gavaging at 60 mg/kg. For the tail vein injection, a volume of 200 μl of sample solution was used.
To monitor bioluminescent signals from A498-luc cells, isoflurane gas-anesthetized animals were injected intraperitoneally with 200 μl of D-luciferin (5 mg ml^−1, Promega) in PBS, and placed on a warmed stage (30° C.) inside the camera box of the IVIS imaging system (Xenogen, Alameda, Calif., USA) with a CCD camera. […] Images and measurements of luminescent signals were acquired and analyzed with the Xenogen imaging software v3.2 and quantified as photons/s. Tumor size and body weight were measured on a weekly basis. […]

Series [4] can be described thus: Body weight in the ACHN xenograft oral study. Format: in vivo, mouse. The following applies: oral gavage daily. The method, then:
as §1
To investigate the therapeutic effect of SU/PEG-mEGCG MNC via oral administration, a xenograft tumor model was established by inoculating 4×10^6 ACHN cells suspended in 100 μl of PBS and 100 μl of Matrigel (BD Bioscience) subcutaneously into the root of the right thigh of the mouse. Once the tumors reached a volume of 200 mm^3, the animals were divided into four groups for oral gavage of various solutions (n=8 per group) daily for 5 weeks: control (citrate buffer pH5), SU/PEG-mEGCG 8:1 (SU at 15 mg/kg), SU at 15 and 40 mg/kg. Tumors were measured twice weekly with a digital caliper, and the tumor volumes (mm^3) were calculated from the following formula: volume=(length×width^2)/2 (FIGS. 16 and 17).

Consider `O=C(O[C@@H]1Cc2c(O)cc(O)cc2O[C@@H]1c1cc(O)c(O)c(O)c1)c1cc(O)c(O)c(O)c1` [EGCG, (−)-Epigallocatechin-3-gallate], for which, in series [1], the half-life result was “less than 30 minutes”. The “effect of EGCG administration on plasma concentrations of SU” value in series [2] is on record as “markedly reduced”.
Regarding `CCN(CC)CCNC(=O)c1c(C)[nH]c(/C=C2\C(=O)Nc3ccc(F)cc32)c1C` [SU, Sunitinib], the body weight entry is on record as “significant weight loss” in series [3] (daily oral gavage 60 mg/kg, one week after commencement of treatment) and “significant weight loss” in series [4] (SU at 40 mg/kg). For the same molecule, in series [3] (mouse, in vivo, po, 60 mg/kg/day), the “toxicity of oral dose” value is “too toxic”. Further, in series [4] (SU at 15 mg/kg), the weight loss entry is reported as “not observed”.

(Values after US10463646B2, “Micellar polymer-flavonoid conjugate nanocomplex” (Agency for Science, Technology and Research, priority 2014, dated 2019).)
